Several values for one entry are separate records, joined by “and”; a condition that tells them apart may be missing. Equal entries are not always repeated.
Molecular target: Glutamate receptor ionotropic, NMDA 1 (Rattus norvegicus, UniProt P35439)

Question: How did the Ki turn out when N[C@@H](Cc1ccc(Cl)cc1)C(=O)O [CAS_7424-00-2] was run?
Answer: Its Ki is 42.2 nM and 180 nM.

Question: CN[C@@]1(c2ccccc2Cl)CCCCC1=O [2-(2-Chloro-phenyl)-2-methylamino-cyclohexanone(Ketamine)] was tested. Which Ki did it give?
Answer: The Ki was 1190 nM and 2510 nM.

— BindingDB's records for doi:10.1016/0028-3908(95)00017-z (Merz, 1995)
